From patent publication US20230391760A1, “HETEROCYCLIC GLP-1 AGONISTS” (Gasherbrum Bio, Inc., priority 2020, published 2023)

Biological target: GLP-1 Receptor (Homo sapiens, UniProt P43220)
Test: GLP-1R agonist cAMP stimulation assay (HEK293/GLP1R/CRE-LUC cells, cAMP dynamic 2 Kit)
Type: cell-based
Details: HEK293/CRE-Luc cell line stably expressing the GLP-1 Receptor, 30 min at 37° C.
Summary of the method: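 HEK293 cells stably expressing human GLP-1R with CRE-luciferase, 1000 cells/well in DPBS with 0.5 mM IBMX and 0.1% BSA, treated with compound in 1/2-log serial dilution for 30 min at 37 °C. cAMP then detected by HTRF (cAMP-d2 plus anti-cAMP cryptate), 1 h at room temperature in the dark.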

GLP-1 Receptor, sequence (P43220 24-463, species assumed): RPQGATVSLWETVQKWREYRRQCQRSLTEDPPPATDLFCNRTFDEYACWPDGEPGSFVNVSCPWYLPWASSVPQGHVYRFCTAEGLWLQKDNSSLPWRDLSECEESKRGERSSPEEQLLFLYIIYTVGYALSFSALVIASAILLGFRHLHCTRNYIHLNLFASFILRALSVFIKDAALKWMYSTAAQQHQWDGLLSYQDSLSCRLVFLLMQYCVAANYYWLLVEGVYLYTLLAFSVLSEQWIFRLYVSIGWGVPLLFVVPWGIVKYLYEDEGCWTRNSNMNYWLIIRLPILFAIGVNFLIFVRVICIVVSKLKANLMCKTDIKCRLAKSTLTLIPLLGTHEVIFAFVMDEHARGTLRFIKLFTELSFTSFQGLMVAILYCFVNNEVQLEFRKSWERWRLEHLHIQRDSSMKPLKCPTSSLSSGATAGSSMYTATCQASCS

| Structure (SMILES) | EC50 |
| --- | --- |
| C[C@]1(c2ccc(Cl)cn2)Oc2cccc(C3CCN(Cc4nc5cc(-c6nnc(C(F)(F)F)[nH]6)nnc5n4C[C@H]4CCOC4)CC3)c2O1 [Compound 474a, 5-chloro-2-[(2S)-2-methyl-4-{1-[(7-{[(3R)-oxolan-3-yl]methyl}-3-[5-(trifluoromethyl)-4H-1,2,4-triazol-3-yl]-7H-imidazo[4,5-c]pyridazin-6-yl)methyl]piperidin-4-yl}-2H-1,3-benzodioxol-2-yl]pyridine] | 1.5 nM |
| CC1(c2ccc(Cl)cc2F)Oc2cccc(C3CCN(Cc4nc5cc(-c6cn(CCC(=O)O)nn6)ccc5n4C[C@@H]4CCO4)CC3)c2O1 (stereo partly drawn) [Compound 251a, 3-{4-[2-({4-[2-(4-chloro-2-fluorophenyl)-2-methyl-2H-1,3-benzodioxol-4-yl]piperidin-1-yl}methyl)-1-{[(2S)-oxetan-2-yl]methyl}-1H-1,3-benzodiazol-5-yl]-1H-1,2,3-triazol-1-yl}propanoic acid] | 0.11 nM |
| N#Cc1ccc(COc2cccc(C3=CCN(Cc4nc5cc(-c6nnc(C(F)(F)F)[nH]6)cnc5n4C[C@@H]4CCO4)CC3)c2)c(F)c1 [Compound 317a, 3-fluoro-4-[(3-{1-[(3-{[(2S)-oxetan-2-yl]methyl}-6-[5-(trifluoromethyl)-4H-1,2,4-triazol-3-yl]-3H-imidazo[4,5-b]pyridin-2-yl)methyl]-1,2,3,6-tetrahydropyridin-4-yl}phenoxy)methyl]benzonitrile] | 0.11 nM |
| O=C(Nc1ccc2c(c1)nc(CN1CCC(c3cccc(OCc4ccccc4)n3)CC1)n2C[C@@H]1CCO1)c1cccnc1 [Compound 204a, N-[2-({4-[6-(benzyloxy)pyridin-2-yl]piperidin-1-yl}methyl)-1-{[(2S)-oxetan-2-yl]methyl}-1H-1,3-benzodiazol-5-yl]pyridine-3-carboxamide] | 0.84 nM |
| O=C(Nc1ccc2c(c1)nc(CN1CCC(c3cccc(OCc4ccc(Cl)cc4F)n3)CC1)n2C[C@@H]1CCO1)C1CC1 [Compound 103a, (S)—N-(2-((4-(6-((4-chloro-2-fluorobenzyl)oxy)pyridin-2-yl)piperidin-1-yl)methyl)-1-(oxetan-2-ylmethyl)-1H-benzo[d]imidazol-5-yl)cyclopropanecarboxamide] | 0.309 nM |
| Cn1nc(-c2ccc3c(c2)nc(CN2CCC(c4cccc5c4OC(C)(c4ccc(Cl)cc4F)O5)CC2)n3C[C@@H]2CCO2)oc1=O (stereo partly drawn) [Compound 220a, 5-[2-({4-[2-(4-chloro-2-fluorophenyl)-2-methyl-2H-1,3-benzodioxol-4-yl]piperidin-1-yl}methyl)-1-{[(2S)-oxetan-2-yl]methyl}-1H-1,3-benzodiazol-5-yl]-3-methyl-2,3-dihydro-1,3,4-oxadiazol-2-one] | 2.8 nM |
| Cc1ccnn1C(C)C(=O)Nc1ccc2c(c1)nc(CN1CCC(c3cccc(OCc4ccc(Cl)cc4F)n3)CC1)n2C[C@@H]1CCO1 (stereo partly drawn) [Compound 185a, N-{2-[(4-{6-[(4-chloro-2-fluorophenyl)methoxy]pyridin-2-yl}piperidin-1-yl)methyl]-1-{[(2S)-oxetan-2-yl]methyl}-1H-1,3-benzodiazol-5-yl}-2-(5-methyl-1H-pyrazol-1-yl)propanamide] | 5.3 nM |
| CC1(c2ccc(Cl)cc2)Oc2cccc(C3=CCN(Cc4nc5cc(-c6nnc(C(F)(F)F)[nH]6)ccc5n4C[C@@H]4CCO4)CC3)c2O1 (stereo partly drawn) [Compound 255a, 2-({4-[2-(4-chlorophenyl)-2-methyl-2H-1,3-benzodioxol-4-yl]-1,2,3,6-tetrahydropyridin-1-yl}methyl)-1-{[(2S)-oxetan-2-yl]methyl}-5-[5-(trifluoromethyl)-4H-1,2,4-triazol-3-yl]-1H-1,3-benzodiazole] | 0.24 nM |
| CC1(c2ccc(Cl)cc2F)Oc2cccc(C3CCN(Cc4nc5cc(-c6nnc(C(F)F)[nH]6)c(F)cc5n4C[C@@H]4CCO4)CC3)c2O1 (stereo partly drawn) [Compound 249a, 2-({4-[2-(4-chloro-2-fluorophenyl)-2-methyl-2H-1,3-benzodioxol-4-yl]piperidin-1-yl}methyl)-5-[5-(difluoromethyl)-4H-1,2,4-triazol-3-yl]-6-fluoro-1-{[(2S)-oxetan-2-yl]methyl}-1H-1,3-benzodiazole] | 0.27 nM |
| CC1(c2ccc(Cl)cc2F)Oc2cccc(C3CCN(Cc4nc5cc(-c6n[nH]c(=O)o6)ccc5n4C[C@@H]4CCO4)CC3)c2O1 (stereo partly drawn) [Compound 219a, 5-[2-({4-[2-(4-chloro-2-fluorophenyl)-2-methyl-2H-1,3-benzodioxol-4-yl]piperidin-1-yl}methyl)-1-{[(2S)-oxetan-2-yl]methyl}-1H-1,3-benzodiazol-5-yl]-2,3-dihydro-1,3,4-oxadiazol-2-one] | 1.6 nM |
| O=c1[nH]c(-c2ccc3c(c2)nc(CC2CC=C(c4nc(OCc5ccc(Cl)cc5F)ncc4F)CC2)n3C[C@@H]2CCO2)no1 (stereo partly drawn) [Compound 242a, 3-(2-((4-(2-((4-chloro-2-fluorobenzyl)oxy)-5-fluoropyrimidin-4-yl)cyclohex-3-en-1-yl)methyl)-1-(((S)-oxetan-2-yl)methyl)-1H-benzo[d]imidazol-5-yl)-1,2,4-oxadiazol-5(4H)-one] | 0.36 nM |
| CO[C@H](C)Cn1c(CN2CCC(c3cccc4c3O[C@@](C)(c3ccc(Cl)cn3)O4)CC2)nc2cc(-c3nnn[nH]3)ncc21 [Compound 429a, 5-chloro-2-[(2S)-4-[1-({3-[(2R)-2-methoxypropyl]-6-(1H-1,2,3,4-tetrazol-5-yl)-3H-imidazo[4,5-c]pyridin-2-yl}methyl)piperidin-4-yl]-2-methyl-2H-1,3-benzodioxol-2-yl]pyridine] | 0.24 nM |
| Fc1cc(Cl)ccc1COc1cccc(C2=CCN(Cc3nc4cc(-c5nnc(C(F)(F)F)[nH]5)cnc4n3C[C@@H]3CCO3)CC2)c1 [Compound 319a, 4-{3-[(4-chloro-2-fluorophenyl)methoxy]phenyl}-1-[(3-{[(2S)-oxetan-2-yl]methyl}-6-[5-(trifluoromethyl)-4H-1,2,4-triazol-3-yl]-3H-imidazo[4,5-b]pyridin-2-yl)methyl]-1,2,3,6-tetrahydropyridine] | 0.36 nM |
| CC1(c2ccc(F)cc2F)Oc2cccc(C3CCN(Cc4nc5cc(-c6nnc(C(F)(F)F)[nH]6)ccc5n4C[C@@H]4CCO4)CC3)c2O1 (stereo partly drawn) [Compound 259a, 2-({4-[2-(2,4-difluorophenyl)-2-methyl-2H-1,3-benzodioxol-4-yl]piperidin-1-yl}methyl)-1-{[(2S)-oxetan-2-yl]methyl}-5-[5-(trifluoromethyl)-4H-1,2,4-triazol-3-yl]-1H-1,3-benzodiazole] | 0.074 nM |
| CC1(c2ccc(C#N)cc2F)Oc2cccc(C3CCN(Cc4nc5cc(-c6noc(=O)[nH]6)ncc5n4C[C@@H]4CCO4)CC3)c2O1 (stereo partly drawn) [Compound 341a, 3-fluoro-4-(2-methyl-4-{1-[(3-{[(2S)-oxetan-2-yl]methyl}-6-(5-oxo-4,5-dihydro-1,2,4-oxadiazol-3-yl)-3H-imidazo[4,5-c]pyridin-2-yl)methyl]piperidin-4-yl}-2H-1,3-benzodioxol-2-yl)benzonitrile] | 0.026 nM |
| O=C(Cc1ccccc1)Nc1ccc2c(c1)nc(CN1CCC(c3cccc(OCc4ccc(Cl)cc4F)n3)CC1)n2C[C@@H]1CCO1 [Compound 130a, N-{2-[(4-{6-[(4-chloro-2-fluorophenyl)methoxy]pyridin-2-yl}piperidin-1-yl)methyl]-1-{[(2S)-oxetan-2-yl]methyl}-1H-1,3-benzodiazol-5-yl}-2-phenylacetamide] | 5.1 nM |
| Cc1cnccc1C(=O)Nc1ccc2c(c1)nc(CN1CCC(c3cccc(OCc4ccc(Cl)cc4F)n3)CC1)n2C[C@@H]1CCO1 [Compound 178a, N-{2-[(4-{6-[(4-chloro-2-fluorophenyl)methoxy]pyridin-2-yl}piperidin-1-yl)methyl]-1-{[(2S)-oxetan-2-yl]methyl}-1H-1,3-benzodiazol-5-yl}-3-methylpyridine-4-carboxamide] | 0.57 nM |
| C[C@]1(c2ccc(C#N)cc2F)Oc2cccc(C3CCN(Cc4nc5cc(-c6n[nH]c(C(F)(F)F)n6)ncc5n4C[C@@H]4CCO4)CC3)c2O1 [Compound 342a, 3-fluoro-4-[(2S)-2-methyl-4-{1-[(3-{[(2S)-oxetan-2-yl]methyl}-6-[5-(trifluoromethyl)-4H-1,2,4-triazol-3-yl]-3H-imidazo[4,5-c]pyridin-2-yl)methyl]piperidin-4-yl}-2H-1,3-benzodioxol-2-yl]benzonitrile] | 0.0064 nM |
| C[C@]1(c2ccc(Cl)cc2F)Oc2cccc(C3CCN(Cc4nc5cc(-c6nnc(C(F)(F)F)[nH]6)ncc5n4CC4(C#N)CC4)CC3)c2O1 [Compound 345a, 1-{[2-({4-[(2S)-2-(4-chloro-2-fluorophenyl)-2-methyl-2H-1,3-benzodioxol-4-yl]piperidin-1-yl}methyl)-6-[5-(trifluoromethyl)-4H-1,2,4-triazol-3-yl]-3H-imidazo[4,5-c]pyridin-3-yl]methyl}cyclopropane-1-carbonitrile] | 0.014 nM |
| Fc1cc(Cl)ccc1[C@H]1COc2cccc(C3CCN(Cc4nc5cc(-c6nnc(C(F)(F)F)[nH]6)nnc5n4C[C@@H]4CCO4)CC3)c2O1 [Compound 523a, 4-[(3S)-3-(4-chloro-2-fluorophenyl)-2,3-dihydro-1,4-benzodioxin-5-yl]-1-[(7-{[(2S)-oxetan-2-yl]methyl}-3-[5-(trifluoromethyl)-4H-1,2,4-triazol-3-yl]-7H-imidazo[4,5-c]pyridazin-6-yl)methyl]piperidine] | 0.14 nM |
| CC1(c2ccc(Cl)cc2)Oc2cccc(C3=CCN(Cc4nc5cc(-c6nnc(C(F)(F)F)[nH]6)ccc5n4CC4(C#N)CC4)CC3)c2O1 (stereo not shown) [Compound 413, 1-{[2-({4-[2-(4-chlorophenyl)-2-methyl-2H-1,3-benzodioxol-4-yl]-1,2,3,6-tetrahydropyridin-1-yl}methyl)-5-[5-(trifluoromethyl)-4H-1,2,4-triazol-3-yl]-1H-1,3-benzodiazol-1-yl]methyl}cyclopropane-1-carbonitrile] | 0.6 nM |
| Fc1cc(Cl)ccc1COc1nc(C2CCN(Cc3nc4cc(-c5nnc(C(F)(F)F)[nH]5)ncc4n3C[C@@H]3CCO3)CC2)ccc1F [Compound 472a, 2-[(4-chloro-2-fluorophenyl)methoxy]-3-fluoro-6-{1-[(3-{[(2S)-oxetan-2-yl]methyl}-6-[5-(trifluoromethyl)-4H-1,2,4-triazol-3-yl]-3H-imidazo[4,5-c]pyridin-2-yl)methyl]piperidin-4-yl}pyridine] | 0.012 nM |
